Source: BindingDB's records for doi:10.7270/Q2T43RPN (Burnham Center For Chemical Genomics, 2012)

biological target: T1, Tyrosine-protein phosphatase non-receptor type 11 (Homo sapiens, UniProt Q06124); assay: PTPN11 enzyme inhibitors – biochemical, selectivity assay for STEP inhibitor project, dose response (AID 602367)
T1 sequence (Q06124 whole entry): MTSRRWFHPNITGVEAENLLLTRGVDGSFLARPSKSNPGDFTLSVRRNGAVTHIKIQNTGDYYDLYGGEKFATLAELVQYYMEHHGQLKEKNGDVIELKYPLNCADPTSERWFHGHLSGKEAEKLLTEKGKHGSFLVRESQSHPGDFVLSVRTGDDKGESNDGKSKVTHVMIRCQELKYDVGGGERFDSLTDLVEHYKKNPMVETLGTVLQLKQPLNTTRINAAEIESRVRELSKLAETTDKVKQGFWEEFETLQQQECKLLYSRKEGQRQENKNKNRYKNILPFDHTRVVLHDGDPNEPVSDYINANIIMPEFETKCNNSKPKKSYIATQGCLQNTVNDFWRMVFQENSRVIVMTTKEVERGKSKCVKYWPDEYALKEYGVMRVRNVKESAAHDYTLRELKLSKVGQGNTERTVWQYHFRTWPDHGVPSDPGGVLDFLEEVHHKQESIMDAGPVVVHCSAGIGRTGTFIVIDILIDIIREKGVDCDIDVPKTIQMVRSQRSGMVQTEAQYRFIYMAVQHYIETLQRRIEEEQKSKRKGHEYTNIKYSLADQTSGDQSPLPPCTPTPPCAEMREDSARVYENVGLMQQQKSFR

Structure (SMILES)	IC50 [µM]
O=C1C(=O)N(CCCO)C(c2ccc(Br)cc2)C1C(=O)c1ccc(Br)cc1 (stereo not given) [(4E)-5-(4-bromophenyl)-4-[(4-bromophenyl)-oxidanyl-methylidene]-1-(3-oxidanylpropyl)pyrrolidine-2,3-dione]	58.9
S=C1N=C(C23CC4CC(CC(C4)C2)C3)CC(c2ccc3c(c2)OCO3)N1 (stereo not given)	15
COc1ccc(CN=Nc2nc(O)c(CC(=O)O)s2)cc1OCc1ccc(Cl)cc1Cl [[2-({3-[(2,4-dichlorobenzyl)oxy]-4-methoxybenzylidene}hydrazono)-4-oxo-1,3-thiazolidin-5-yl]acetic acid]	4.42
CCN(CC)P(=O)(NC(=O)C(Cl)(Cl)Cl)N(CC)CC [MLS000564159]	3.91
S=C1N=C2C(=C3SCCS3)CCCC2C(c2ccccc2)N1 (stereo not given) [MLS000516376]	5.27

These reach a lower IC50. Values come first.

IC50 [µM]	Structure (SMILES)
< 0.16	C=c1c(O)c(O)c(=C2C(=O)C(=O)C(C)C(=O)C2=O)c(O)c1O (stereo not given) [(3E)-5-hydroxy-6-methyl-3-(2,3,5-trihydroxy-4-methyl-6-oxo-1-cyclohexa-2,4-dienylidene)cyclohex-5-ene-1,2,4-trione]
2.39	O=C(N/N=C/C1C=CC=CC1=O)c1cccc([N+](=O)[O-])c1 (stereo not given) [MLS002667988]
0.469	COc1ccc(OC)c(-n2c(O)c3o[nH]c(-c4ccccc4Cl)c-3c2=O)c1 [SMR000046218]
2.2	CCOc1cc(CN=Nc2nc(O)c(CC(=O)O)s2)ccc1OCc1ccc(Cl)cc1Cl [2-[2-[(N''E)-N''-[4-(2,4-dichlorobenzyl)oxy-3-ethoxy-benzylidene]hydrazino]-4-keto-2-thiazolin-5-yl]acetic acid]
1.11	CSc1ccc(CN=Nc2ccc(S(=O)(=O)Nc3ccccc3C(=O)O)cc2[N+](=O)[O-])cc1 [MLS002245633]
